According to US12466807B2, “Salt and crystal form of a FAK inhibitor” (Amplia Therapeutics Limited, priority 2019, dated 2025):
“Also recorded” adds a separate entry of the source. Marks after values point to notes of the source that are not given here.

How the values were obtained:
[1] = Oral exposure (pharmacokinetics) in rats; format: in vivo, male Sprague Dawley rats; conditions: rat
Procedure: To compare the exposure of the compound of Formula I in male Sprague Dawley rats following oral administration of the free base and L-tartrate salt at a target dose of 20 mg/kg (as free base equivalent).
Further details of the in-life, formulation and bioanalytical procedures together with the data analysis, are described in Appendix 1.
In-Life • The exposure of Formula I was studied in overnight-fasted male Sprague Dawley rats that had access to water ad libitum throughout the pre- and post-dose sampling period, and access to food was re-instated 4 h post-dose. In-life details are provided in Table A1-1. • Samples of arterial blood and total urine were collected up to 48 h post-dose. Arterial blood was collected directly into borosilicate vials (at 4° C.) containing heparin, Complete® (a protease inhibitor cocktail) and potassium fluoride to minimise potential for ex vivo degradation of Formula I in blood/plasma samples. Once collected, blood samples were centrifuged, supernatant plasma was removed and stored frozen (−80° C.) until analysis by LC-MS.
The extraction of the test compound from plasma samples was conducted using protein precipitation with acetonitrile. Both solution and plasma standards were freshly prepared, with each set of standards comprising at least seven different analyte concentrations. Solution standards were diluted from a stock solution (1 mg/mL in DMSO) with 50% acetonitrile in water. Plasma standards were prepared by spiking blank plasma (50 μL) with solution standards (10 μL) and the internal standard, diazepam (10 μL, 5 μg/mL).
Plasma samples were similarly prepared, except that blank acetonitrile (10 μL) was added instead of solution standards. Protein precipitation was carried out by the addition of acetonitrile (120 μL), vortexing (20 s) and centrifugation (10,000 rpm) in a microcentrifuge for 3 minutes. The supernatant was subsequently separated and 3 μL injected directly onto the column for LC/MS analysis using conditions tabulated below. All plasma concentrations are expressed as the non-salt equivalent.
Standard Calculations • Plasma concentration versus time data were analysed using non-compartmental methods (PKSolver Version 2.0). Standard calculations for each pharmacokinetic parameter are listed below.
[formula] • AUCIV Area under the plasma concentration versus time profile from time zero to infinity after IV administration (reported previously: CDCO_FAK_11_031) • t1/2 Elimination half-life • λ2 Terminal elimination rate constant after IV administration • BA Oral bioavailability • AUCoral Area under the plasma concentration versus time profile from time zero to infinity after oral administration • Cmax Maximum plasma concentration observed after oral administration. • Tmax Time to achieve Cmax • Differences in pharmacokinetic parameters (t½, AUC, Cmax, Tmax and BA) between free base and L-tartrate salt were evaluated using an unpaired t-test testing for significance at α=0.05 (GraphPad Prism, version 7.01)

[2] = Thermodynamic solubility studies; format: physicochemical; conditions: for HPLC Conc: ca. 22° C.
Procedure: Thermodynamic Solubility Studies were carried out as follows: • Approximately 10 mg of Formula I free base Pattern 1 and L-tartrate Pattern 1, were weighed into a 1.5 mL screw-cap vial. The appropriate buffer system was added to create a slurry and the vials were shaken at ambient temperature (ca. 22° C.) for approximately 24 hours. • After this time, the slurries were transferred to centrifuge tubes containing nylon filters (0.22 μm) and filtered using a centrifuge for ca. 10 minutes. The isolated solids were then analyzed by XRPD and the filtrates measured by a pH meter and analyzed by HPLC for concentration.

[3] = Dynamic/gravimetric vapour sorption (DVS/GVS) hygroscopicity; format: physicochemical; conditions: for Hygroscopicity, mass uptake (DVS/GVS): at 90% R.H., 25° C.
Procedure: Approximately 10-20 mg of sample was placed into a mesh vapour sorption balance pan and loaded into the DVS-1 dynamic vapour sorption balance by Surface Measurement Systems. The sample was subjected to a ramping profile from 40-90% relative humidity (RH) at 10% increments, maintaining the sample at each step until a stable weight had been achieved (dm/dt 0.004%, minimum step length 30 minutes, maximum step length 500 minutes) at 25° C. After completion of the sorption cycle, the sample was dried using the same procedure to 0% RH and then a second sorption cycle back to 40% RH. Two cycles were performed. The weight change during the sorption/desorption cycles were plotted, allowing for the hygroscopic nature of the sample to be determined. XRPD analysis was then carried out on any solid retained.
Approximately 10-20 mg of sample was placed into a mesh vapour sorption balance pan and loaded into an IGASorp Moisture Sorption Analyser balance by Hiden Analytical. The sample was subjected to a ramping profile from 40-90% relative humidity (RH) at 10% increments, maintaining the sample at each step until a stable weight had been achieved (98% step completion, minimum step length 30 minutes, maximum step length 60 minutes) at 25° C. After completion of the sorption cycle, the sample was dried using the same procedure to 0% RH, and finally taken back to the starting point of 40% RH. Two cycles were performed. The weight change during the sorption/desorption cycles were plotted, allowing for the hygroscopic nature of the sample to be determined.

[4] = Hydration studies; format: physicochemical; conditions: 24 h
Procedure: Hydration studies were carried out as follows: • Approximately 10-20 mg of Formula I free base, L-tartrate Pattern 1, were weighed into 1.5 mL vials. • Water/acetone mixtures were prepared to give water activities of 0.281, 0.637 and 0.888. • The appropriate water/acetone mixture was then added to each vial to form a slurry and the vials capped and shaken at ambient temperature for 24 hours. • After this time, the slurries were transferred to centrifuge tubes containing nylon filters (0.22 μm) and centrifuged for 15 minutes. The isolated solids were analyzed by XRPD.

[5] = Salt disproportionation studies; format: physicochemical; conditions: for XRPD Result: solid after 24 h in deionized water
Procedure: Salt disproportionation studies were carried out as follows: • Approximately 10-20 mg of Formula I free base, L-tartrate Pattern 1 were weighed into HPLC vials. • 1 mL deionized water was then added to each vial and the vials capped and shaken at ambient temperature for 24 hours. • After this time, the samples were transferred to centrifuge tubes with nylon filters (0.22 μm) and centrifuged for approximately 15 minutes. The isolated solids were analyzed by XRPD and the filtrates analyzed by HPLC for concentration determination and the pH of all the filtrates were measured with a pH meter.

[6] = PO 20 mg/kg (free base equivalent), mean ± SD, n = 3, listed as L-Tartrate salt, 20 mg/kg
[7] = listed as Formula I L-tartrate Pattern 1

COc1cc(C2CCN(C)CC2)ccc1Nc1ncc(C(F)(F)F)c(CCc2ccccc2CC(N)=O)n1 [L-Tartrate]
Apparent t1/2 [1, 6]: 5.8 ± 0.2 h | BA [1, 6]: 71.3 ± 7.5 % | Plasma AUC0-inf [1, 6]: 14.6 ± 1.5* h*μM | Tmax [1, 6]: 5.7 ± 1 h | Cmax ([1]; PO 20 mg/kg (free base equivalent), mean ± SD, n = 3, listed as L-Tartrate salt, 20 mg/kg, read-out: Plasma Cmax): 1200 ± 300 nM | Cmax greater than the free base ([1]; PO 20 mg/kg): approximately 30% | Plasma AUC compared with the free base ([1]; PO 20 mg/kg): significantly higher | Adverse reactions or compound-related side effects ([1]; PO 20 mg/kg, 48 h sampling period): No adverse reactions or compound-related side effects were observed | % Dose in urine (unchanged Formula I) ([1]; PO 20 mg/kg, pooled urine up to 48 h, listed as L-Tartrate salt, 20 mg/kg): 0.341 ± 0.042% | AUC greater than the free base ([1]; PO 20 mg/kg, P<0.05): ~50% | N-demethylation metabolite of Formula I ([1]; plasma and urine after PO 20 mg/kg, not quantified): detected in plasma and urine | Thermodynamic Solubility ([2]; Water): 0.9 mg/mL | Thermodynamic Solubility ([2]; pH 1.0): 0.3 mg/mL | HPLC Conc ([2]; pH 1.0, 24 h slurry): 0.3 mg/mL | XRPD Result ([2]; pH 1.0, solid after 24 h slurry, listed as L-Tartrate Pattern 1): Possible HCl salt | XRPD Result ([2]; pH 1.0, solid after 24 h slurry, listed as L-tartrate Pattern 1): possible HCl salt | pH Post-24 h Slurry ([2]; pH 1.0, listed as L-Tartrate Pattern 1): 1.87 | Thermodynamic Solubility ([2]; pH 4.5): 0.3 mg/mL | HPLC Conc ([2]; pH 4.5, 24 h slurry, listed as L-Tartrate Pattern 1): 0.3 mg/mL | XRPD Result ([2]; pH 4.5, solid after 24 h slurry, listed as L-Tartrate Pattern 1): Pattern 2 | pH Post-24 h Slurry ([2]; pH 4.5, listed as L-Tartrate Pattern 1): 3.99 | Thermodynamic Solubility ([2]; pH 6.8): 0.2 mg/mL | HPLC Conc ([2]; pH 6.8, 24 h slurry): 0.2 mg/mL | HPLC Conc ([2]; pH 6.8, 24 h slurry, listed as L-Tartrate Pattern 1): 0.2 mg/mL | XRPD Result ([2]; pH 6.8, solid after 24 h slurry, listed as L-Tartrate Pattern 1): Pattern 2 | pH Post-24 h Slurry ([2]; pH 6.8, listed as L-Tartrate Pattern 1): 4.43 | HPLC Conc ([2]; water, 24 h slurry, listed as L-Tartrate Pattern 1): 0.9 mg/mL | XRPD Result ([2]; water, solid after 24 h slurry, listed as L-Tartrate Pattern 1): Pattern 2 | pH Post-24 h Slurry ([2]; water, listed as L-Tartrate Pattern 1): 3.43 | Post-GVS XRPD ([3]; after GVS humidity cycles, listed as Formula I L-tartrate Pattern 1): no changes to the XRPD pattern; also recorded: no change in form | Hygroscopicity, mass uptake (DVS/GVS) [3]: Uptake of 0.6 wt % | Hygroscopicity, mass uptake (DVS/GVS) [3, 7]: 0.6 wt % | Hygroscopic nature by GVS analysis ([3]; up to 90% RH): slightly hygroscopic | XRPD Result ([4]; Water Activity 0.281, water/acetone): Pattern 1 | XRPD Result ([4]; Water Activity 0.637, water/acetone): Pattern 1 | XRPD Result ([4]; Water activity 0.888, water/acetone, listed as L-Tartrate Pattern 1): Pattern 2 (hydrate) | XRPD Result ([4]; Water activity 0.888, water/acetone, listed as L-tartrate Pattern 1): L-tartrate Pattern 2 | Salt disproportionation ([5]; deionized water, 24 h): no evidence of disproportionation | Water pH Post-24 h ([5]; deionized water, 24 h, ambient temperature, listed as L-Tartrate Pattern 1): 3.43 | XRPD Result [5, 7]: L-tartrate Pattern 2 | XRPD Result ([5]; listed as L-Tartrate Pattern 1): L-Tartrate Pattern 2
